The test system of data set [1] is NCI-H358 cells (KRAS G12C mutant cell line). Nature of the data set: Proliferation experiment of NCI-H358 cells (Cell Titer-Glo). Format: cell-based. The conditions noted are these: Homo sapiens, 72 hours, read-out: Test Example 1 IC50. As for the experimental part:
(§1) According to the solution described in Cell Titer-Glo Luminescent cell Viability Assay (Promega catalog number #G7570) of Promega Corporation, the number of living cells in the culture was detected. 90 μL of cells (8,000 cells/well) were cultured in a growth medium in a Corning black transparent bottom 96-well plate and were cultured overnight in a 5% CO2 humidified incubator at 37° C. The compound diluted serially in 100% DMSO was added to the cells by a pipette, and the cells were cultured for another 72 hours. 100 μL of the well-mixed Cell Titer-Glo reagent was added to the cells in the 96-well culture plate to lyse the cells and gently mixed. Subsequently, […] was detected on an Envision microplate detector, and the data of each compound was obtained. Finally, the data was input into a suitable software package (such as Prism) for curve fitting analysis.
(In general: ATP-based viability assays read luminescence as a measure of living cells.)

Data set [2] relates to NCI-H23 cells (KRAS G12C mutant cell line). Briefly: Proliferation experiment of NCI-H23 cells (Cell Titer-Glo). The conditions noted are these: Homo sapiens, 72 hours, read-out: Test Example 2 IC50. It is filed as cell-based. The procedure:
Human lung cancer cell line NCI-H23 (ATCC, CRL-5800) was a KRAS G12C mutant cell line.
as §1

Data set [3] has as its target Ba/F3 (KRAS-G12C-Y96C) cells (Homo sapiens, UniProt P01116, G12C/Y96C, cells depend on it). Briefly: Proliferation experiment of Ba/F3 (KRAS-G12C-Y96C) cells. Format: cell-based. As to conditions: 72 hours, Cell Titer-Glo, read-out: Test Example 3 IC50. As for the experimental part:
Engineered cell strain Ba/F3 (KRAS-G12C-Y96C) was a cell strain constructed by the inventors according to the methods described in Warmuth M. et al, Curr Opin Oncol. […] The cells were grown at 37° C. in a humidified incubator with […].
as §1, with “(3,000” for “(8,000”, “[…]” for “5%”

Data set [4] deals with Ba/F3 (KRAS-G12C-H95Q) cells (Homo sapiens, UniProt P01116, G12C/H95Q, cells depend on it). Nature of the data set: Proliferation experiment of Ba/F3 (KRAS-G12C-H95Q) cells. It is filed as cell-based. The conditions noted are these: 72 hours, Cell Titer-Glo, read-out: Test Example 4 IC50. As for the experimental part:
Engineered cell strain Ba/F3 (KRAS-G12C-H95Q) was a cell strain constructed by the inventors according to the methods described in Warmuth M. et al, Curr Opin Oncol. […] The cells were grown at 37° C. in a humidified incubator with […].
as §1, with “(3,000” for “(8,000”

Data set [5] deals with Ba/F3 (KRAS-G12C-R68S) cells (Homo sapiens, UniProt P01116, G12C/R68S, cells depend on it). Briefly: Proliferation experiment of Ba/F3 (KRAS-G12C-R68S) cells. As to conditions: 72 hours, Cell Titer-Glo, read-out: Test Example 5 IC50. It is filed as cell-based. The procedure: Engineered cell strain Ba/F3 (KRAS-G12C-R68S) was a cell strain constructed by the inventors according to the methods described in Warmuth M. et al, Curr Opin Oncol. […] The cells were grown at 37° C. in a humidified incubator with 5% CO2.
Ba/F3 (KRAS-G12C-R68S) cells, sequence (P01116 whole entry G12C/R68S): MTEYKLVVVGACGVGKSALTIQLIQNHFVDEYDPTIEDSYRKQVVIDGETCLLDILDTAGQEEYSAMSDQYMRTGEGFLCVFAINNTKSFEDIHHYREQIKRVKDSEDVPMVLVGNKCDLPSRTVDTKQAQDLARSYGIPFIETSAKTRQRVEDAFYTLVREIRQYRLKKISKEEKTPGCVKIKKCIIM
as §1, with “(3,000” for “(8,000”

In data set [6] the target is Ba/F3 (KRAS-G12C-Q99L) cells (Homo sapiens, UniProt P01116, G12C/Q99L, cells depend on it). Briefly: Proliferation experiment of Ba/F3 (KRAS-G12C-Q99L) cells. As to conditions: 72 hours, Cell Titer-Glo, read-out: Test Example 6 IC50. Format: cell-based. As for the experimental part:
Engineered cell strain Ba/F3 (KRAS-G12C-Q99L) was a cell strain constructed by the inventors according to the methods described in Warmuth M. et al, Curr Opin Oncol. […] The cells were grown at 37° C. in a humidified incubator with 5% CO2.
as §1, with “(3,000” for “(8,000”

A short description of data set [7]: In vitro human liver microsome stability experiment. Format: in vitro ADME. The conditions noted are these: human liver microsomes; for half-life / microsomal CLint: 1 mg/mL microsome protein, NADPH, 37° C.; for microsomal CLint: read-out: CLint(mic); for CLint scaled: scaled to liver. As for the experimental part: Eight 96-well incubation plates were prepared, named [NT], Blank60, and NCF60, respectively. […] No compound to be tested or control compound was added to the Blank60 plate and samples were taken after 60 minutes of incubation. The NCF60 plate, in which a potassium phosphate buffer was used instead of an NADPH regeneration system solution (Sigma, N0505), was incubated for 60 minutes. […] Only the working solution of microsomes was added to the Blank60 plate, and the incubation plates Blank60, T5, T15, T30, T45, and T60 except TO and NCF60 were then placed in a water bath at 37° C. for pre-incubation for about 10 minutes. To the TO plate sample, 600 μL of a stop solution (acetonitrile:methanol (95:5, v/v) solution containing 100 ng/mL tolbutamide (Sigma, T0891)) was added first, and then an NADPH regeneration system working solution was added. 98 μL of a potassium phosphate buffer was added to each well of the NCF60 plate and incubated for 60 minutes. After the pre-incubation in the incubation plates Blank60, T5, T15, T30, T45, and T60 was complete, 98 μL of the NADPH regeneration system working solution was added to each sample well to initiate the reaction. After an appropriate incubation time (such as 5, 15, 30, 45, and 60 minutes), 600 μL of the stop solution was added to each sample well and control sample well in the Blank60, […] the reaction. All the sample plates were shaken evenly and centrifuged at 3220×g for 20 minutes. 200 μL of each test sample supernatant was taken and diluted into 200 μL of an aqueous solution containing 0.3% formic acid for LC-MS/MS analysis, and 100 μL of the control sample supernatant was taken and diluted into 300 μL of pure water for LC-MS/MS analysis. Calculations were carried out according to the following formulas: […]

Ba/F3 (KRAS-G12C-H95Q) cells, sequence (P01116 whole entry G12C/H95Q): as the sequence (P01116 whole entry G12C/R68S) above, with S68R, H95Q counted along it
Ba/F3 (KRAS-G12C-Q99L) cells, sequence (P01116 whole entry G12C/Q99L): as the sequence (P01116 whole entry G12C/R68S) above, with S68R, Q99L counted along it
Ba/F3 (KRAS-G12C-Y96C) cells, sequence (P01116 whole entry G12C/Y96C): as the sequence (P01116 whole entry G12C/R68S) above, with S68R, Y96C counted along it

Usually IC50 stands for the midpoint of a concentration-inhibition curve. What is called half-life is the time in which the quantity being followed falls by half. Lower therefore signals fast loss. As usually defined, the CLint scaled is the capacity of the preparation to metabolise the compound, expressed as a volume cleared per time. As to `C=C(F)C(=O)N1CCN(c2nc(OC[C@@]34CCCN3C[C@H](F)C4)nc3c(F)c(-c4cc(O)cc5cccc(Cl)c45)ccc23)C[C@@H]1CC#N` [Compound 2], the concentration for half-maximal inhibition (IC50) in data set [1] amounted to 0.22 nM; in data set [2], 0.65 nM. In addition, the GI50 worked out at 18.9 nM in data set [3], 70.1 nM in data set [4], 93.9 nM in data set [5] and 130 nM in data set [6]. This compound also displayed a half-life in data set [7] of 18.8 min. In data set [7], the microsomal CLint was 73.7 µL/min/mg. In data set [7], this compound returned a CLint scaled of 66.3 mL/min/kg.

`C=C(F)C(=O)N1CCN(c2nc(OC[C@@]34CCCN3C[C@H](F)C4)nc3c(F)c(-c4cccc5cccc(Cl)c45)ccc23)C[C@@H]1CC#N` [Compound 5]: the IC50 in data set [1] came to 1.58 nM; in data set [2], 1.27 nM. The GI50 came to 473 nM in data set [3], 709 nM in data set [4], 929 nM in data set [5] and 589 nM in data set [6].

In the case of `C=C(F)C(=O)N1CCN(c2nc(OCC34CCCN3CCC4)nc3c(F)c(-c4cccc5cccc(Cl)c45)c(F)cc23)C[C@@H]1CC#N` [Compound 6A, 2-((2S)-4-(7-(8-chloronaphth-1-yl)-6,8-difluoro-2-((tetrahydro-1H-pyrrolizin-7a(5H)-yl)methoxy)quinazolin-4-yl)-1-(2-fluoroacryloyl)piperazin-2-yl)acetonitrile], the 50% inhibitory concentration (IC50) in data set [1] came out at 1.83 nM; in data set [2], 1.44 nM. The GI50 stood at 525 nM in data set [3], 689 nM in data set [4], 863 nM in data set [5] and 779 nM in data set [6].

For `C=C(F)C(=O)N1CCN(c2nc(OCC34CCCN3CCC4)nc3c(F)c(-c4cccc5cccc(Cl)c45)ccc23)C[C@@H]1CC#N` [Compound 17, (S)-2-(4-(7-(8-chloronaphth-1-yl)-8-fluoro-2-((tetrahydro-1H-pyrrolizin-7a(5H)-yl)methoxy)quinazolin-4-yl)-1-(2-fluoroacryloyl)piperazin-2-yl)acetonitrile], the IC50 in data set [1] came out at 0.6 nM; in data set [2], 0.53 nM.

In the case of `C#Cc1c(F)ccc2cccc(-c3c(F)cc4c(N5CCN(C(=O)C(=C)F)[C@@H](CC#N)C5)nc(OCC56CCCN5CCC6)nc4c3F)c12` [Compound 19B, 2-((2S)-4-(7-(8-ethynyl-7-fluoronaphth-1-yl)-6,8-difluoro-2-((tetrahydro-1H-pyrrolizin-7a(5H)-yl)methoxy)quinazolin-4-yl)-1-(2-fluoroacryloyl)piperazin-2-yl)acetonitrile], the IC50 in data set [1] stood at 0.47 nM. The IC50 in data set [2] was found to be 1.71 nM. Further, in data set [7], the half-life came out at 24.5 min, the microsomal CLint is 56.5 µL/min/mg and the CLint scaled worked out at 50.9 mL/min/kg.

As for `C#Cc1ccc2cccc(-c3c(F)cc4c(N5CCN(C(=O)C(=C)F)[C@@H](CC#N)C5)nc(OCC56CCCN5CCC6)nc4c3F)c2c1` [Compound 25, 2-((2S)-4-(7-(7-ethynylnaphth-1-yl)-6,8-difluoro-2-((tetrahydro-1H-pyrrolizin-7a(5H)-yl)methoxy)quinazolin-4-yl)-1-(2-fluoroacryloyl)piperazin-2-yl)acetonitrile], the GI50 in data set [3], in data set [4], in data set [5] and in data set [6] was more than 5000 nM throughout.

With `C#Cc1cc(-c2c(F)cc3c(N4CCN(C(=O)C(=C)F)[C@@H](CC#N)C4)nc(OCC45CCCN4CCC5)nc3c2F)c2ccccc2c1` [Compound 26, 2-((2S)-4-(7-(3-ethynylnaphth-1-yl)-6,8-difluoro-2-((tetrahydro-1H-pyrrolizin-7a(5H)-yl)methoxy)quinazolin-4-yl)-1-(2-fluoroacryloyl)piperazin-2-yl)acetonitrile], the GI50 in data set [3], in data set [4], in data set [5] and in data set [6] was more than 5000 nM each time.

Consider `C#Cc1cccc2c(-c3c(F)cc4c(N5CCN(C(=O)C(=C)F)[C@@H](CC#N)C5)nc(OCC56CCCN5CCC6)nc4c3F)cccc12` [Compound 27, 2-((2S)-4-(7-(5-ethynylnaphth-1-yl)-6,8-difluoro-2-((tetrahydro-1H-pyrrolizin-7a(5H)-yl)methoxy)quinazolin-4-yl)-1-(2-fluoroacryloyl)piperazin-2-yl)acetonitrile], for which the GI50 in data set [3], in data set [4], in data set [5] and in data set [6] was more than 5000 nM in each case.

Turning to `C=C(F)C(=O)N1CCN(c2nc(OCC34CCCN3CCC4)nc3c(F)c(-c4cc(O)cc5c(Cl)cccc45)ccc23)C[C@@H]1CC#N` [Compound 28, (S)-2-(4-(7-(5-chloro-3-hydroxynaphth-1-yl)-8-fluoro-2-((tetrahydro-1H-pyrrolizin-7a(5H)-yl)methoxy)quinazolin-4-yl)-1-(2-fluoroacryloyl)piperazin-2-yl)acetonitrile], the GI50 in data set [3], in data set [4], in data set [5] and in data set [6] was more than 5000 nM throughout.

With `C=C(F)C(=O)N1CCN(c2nc(OCC34CCCN3CCC4)nc3c(F)c(-c4cc(O)cc5ccc(Cl)cc45)ccc23)C[C@@H]1CC#N` [Compound 29, (S)-2-(4-(7-(7-chloro-3-hydroxynaphth-1-yl)-8-fluoro-2-((tetrahydro-1H-pyrrolizin-7a(5H)-yl)methoxy)quinazolin-4-yl)-1-(2-fluoroacryloyl)piperazin-2-yl)acetonitrile], the GI50 in data set [3], in data set [4], in data set [5] and in data set [6] was more than 5000 nM each time.

These data come from patent US20250154156A1, “QUINAZOLINE DERIVATIVE AS KRAS G12C MUTATION INHIBITOR” (Shenzhen Forward Pharmaceuticals Co., Limited, priority 2022, published 2025).
